≈ marks a conversion by molar mass, not a printed value. Where only a bound is given, the exact number is not on record here.

One assay relates to Acinetobacter baumannii. Description: microbe, parasite or virus in culture. To be noted: ATCC 19606, 18 h, ASSAY_TEST Inhibition of Bacterial Growth, detection method Absorption (OD600), MEDIA CAMHB, plate type 384well, NBS, CORNING #3640.
The next assay deals with HEK293. Description: cells. The assay is classed as functional. To be noted: Homo sapiens, ATCC CRL1573, HEK293; ASSAY_TEST Inhibition of Cell Viability; detection method Resazurin; Fluorescence (ex560/em590); MEDIA DMEM with 10% FBS; plate type 384well; TC; CORNING #3712; time 18 hr.
In the next assay the test system is Escherichia coli. Description: microbe, parasite or virus in culture. To be noted: ATCC 25922, 18 h, ASSAY_TEST Inhibition of Bacterial Growth, detection method Absorption (OD600), MEDIA CAMHB, plate type 384well, NBS, CORNING #3640.
The test system of a further assay is Staphylococcus aureus. Description: microbe, parasite or virus in culture. To be noted: ATCC 43300, 18 h, ASSAY_TEST Inhibition of Bacterial Growth, detection method Absorption (OD600), MEDIA CAMHB, plate type 384well, NBS, CORNING #3640.
The next assay deals with Candida albicans. The assay can be described thus: microbe, parasite or virus in culture. To be noted: ATCC 90028, ASSAY_TEST Inhibition of Fungal Growth, detection method Absorption (OD530), plate type 384well, NBS, CORNING #3640.
In another assay the test system is Klebsiella pneumoniae. Description: microbe, parasite or virus in culture. To be noted: ATCC 700603, 18 h, ASSAY_TEST Inhibition of Bacterial Growth, detection method Absorption (OD600), MEDIA CAMHB, plate type 384well, NBS, CORNING #3640.
For the next assay, the system named is Pseudomonas aeruginosa. Description: microbe, parasite or virus in culture. To be noted: ATCC 27853, 18 h, ASSAY_TEST Inhibition of Bacterial Growth, detection method Absorption (OD600), MEDIA CAMHB, plate type 384well, NBS, CORNING #3640.

Description for Acinetobacter baumannii: Antibacterial activity against Acinetobacter baumannii ATCC 19606 (CO-ADD:GN_034); MIC in CAMBH media using NBS plates, by OD600
Description for Candida albicans: Antifungal activity against Candida albicans ATCC 90028 (CO-ADD:FG_001); MIC in YNB media using NBS plates, by OD630
Description for Cryptococcus neoformans: Antifungal activity against Cryptococcus neoformans H99 ATCC 208821 (CO-ADD:FG_002); MIC in YNB media using NBS plates, by Resazurin OD(600-570)
Description for Escherichia coli: Antibacterial activity against Escherichia coli ATCC 25922 (CO-ADD:GN_001); MIC in CAMBH media using NBS plates, by OD(600)
Description for Klebsiella pneumoniae: Antibacterial activity against Klebsiella pneumoniae MDR ATCC 70063 (CO-ADD:GN_003); MIC in CAMBH media using NBS plates, by OD(600)
Description for Pseudomonas aeruginosa: Antibacterial activity against Pseudomonas aeruginosa ATCC 27853 (CO-ADD:GN_042); MIC in CAMBH media using NBS plates, by OD(600)
Description for Staphylococcus aureus: Antibacterial activity against Staphylococcus aureus MRSA ATCC 43300 (CO-ADD:GP_020); MIC in CAMBH media, using NBS plates, by OD(600)

Consider `Oc1ccccc1-c1cc2ccccc2[nH]1` [2-(2'-HYDROXYPHENYL)-1H-INDOLE], for which the MIC with Acinetobacter baumannii, against Escherichia coli, in the assay with Staphylococcus aureus, in the assay with Candida albicans, against Klebsiella pneumoniae and with Pseudomonas aeruginosa was over 32 µg/mL throughout. For the same compound, in the assay on Cryptococcus neoformans, the MIC was over 32 µg/mL. Further, in the assay with HEK293, the CC50 – broadly, the concentration giving 50% cytotoxicity – was 0.256 µg/mL (≈ 1.22 µM).

These data come from ChEMBL document CHEMBL4513144, “CO-ADD screening of University of Central Lancashire (UK) compounds”.
